Among the data in ChEMBL document CHEMBL1921758, “Indole alkaloids and quassinoids from the stems of Brucea mollis” (J Nat Prod, 2011) are IC50 values, retold here.

Common to all, as to assay type: functional, cell-based
Assay [1] can be described thus: Cytotoxicity against human […] cells by MTT assay.
The subject of the next assay is A549. Description: Cytotoxicity against human A549 cells by MTT assay.
In a further assay the test system is Bel-7402. The experiment in a line: Cytotoxicity against human Bel7402 cells by MTT assay.
The next assay deals with HCT-8. The experiment in a line: Cytotoxicity against human HCT8 cells by MTT assay.
A further assay concerns A2780. The experiment in a line: Cytotoxicity against human A2780 cells by MTT assay.

For `CC1=CC(=O)[C@@H](O)[C@]2(C)[C@H]3[C@@H](O)[C@H](O)[C@]4(C)OC[C@@]35[C@@H](C[C@@H]12)OC(=O)[C@H](O)[C@]54O` [BRUCEINE D], the IC50 in assay [1] was 3.8 µM; with A549 it was more than 10 µM; in the assay with Bel-7402 it was 3.51 µM; in the assay on HCT-8, 5.81 µM; in the assay with A2780, more than 10 µM.

As to `CC1(C)c2[nH]c3cc(O)ccc3c2C(=O)[C@@H]1O` [BRUCEOLLINE I], the IC50 (in assay [1]; with A549; with Bel-7402; with HCT-8; in the assay with A2780) was more than 10 µM in each case.

Turning to `CC1(C)C(=O)C(=O)c2c1[nH]c1cc(O)ccc21` [BRUCEOLLINE H], the IC50 (in assay [1]; in the assay with A549; in the assay on Bel-7402; in the assay with HCT-8; in the assay on A2780) was more than 10 µM each time.

As for `CC(C)(O)C(=O)Cc1cn([C@@H]2O[C@H](CO)[C@@H](O)[C@H](O)[C@H]2O)c2ccccc12` [BRUCEOLLINE M], the IC50 (in assay [1]; with A549; in the assay on Bel-7402; in the assay with HCT-8; with A2780) was more than 10 µM each time.

For `CC1=CC(=O)[C@@H](O)[C@]2(C)[C@H]3[C@@H](O)[C@H](O)[C@H](CO)[C@@H]4[C@@H](O)C(=O)O[C@H](C[C@@H]12)[C@@]43C` (relative stereo), the IC50 in assay [1] is 3 µM; in the assay with A549, more than 10 µM; with Bel-7402, 4.4 µM; with HCT-8 it was 3.36 µM; in the assay on A2780, more than 10 µM.

As to `CC(C)(O)[C@@H](O)C[C@]1(O)C(=O)N([C@@H]2O[C@H](CO)[C@@H](O)[C@H](O)[C@H]2O)c2ccccc21` [BRUCEOLLINE N], the IC50 (in assay [1]; in the assay on A549; in the assay on Bel-7402; in the assay with HCT-8; in the assay on A2780) was more than 10 µM throughout.

Take `CC(C)[C@@H](O)C(=O)c1c[nH]c2ccccc12` [BRUCEOLLINE L]: the IC50 (in assay [1]; in the assay on A549; with Bel-7402; in the assay with HCT-8; in the assay on A2780) was more than 10 µM throughout.

In the case of `CC1(C)c2[nH]c3ccccc3c2C(=O)[C@@H]1O` [BRUCEOLLINE J], the IC50 (in assay [1]; in the assay on A549; with Bel-7402; in the assay on HCT-8; with A2780) was more than 10 µM in each case.

For `CC(C)(O)[C@@H](O)Cc1cn([C@@H]2O[C@H](CO)[C@@H](O)[C@H](O)[C@H]2O)c2ccccc12` [BRUCEOLLINE F], the IC50 (in assay [1]; with A549; in the assay with Bel-7402; in the assay with HCT-8; with A2780) was more than 10 µM throughout.

`CC1=CC(=O)[C@@H](O)[C@]2(C)[C@H]3[C@@H](O)[C@H](O)[C@H](CO[C@@H]4O[C@H](CO)[C@@H](O)[C@H](O)[C@H]4O)[C@@H]4[C@@H](O)C(=O)O[C@H](C[C@@H]12)[C@@]43C` [YADANZIOLIDE U]: the IC50 (in assay [1]; with A549; in the assay on Bel-7402; in the assay with HCT-8; with A2780) was more than 10 µM each time.

On to `CC1=CC(=O)O[C@H]1[C@@]1(C)C[C@H]2OC(=O)[C@H](O)[C@H]3[C@@H](CO)[C@@H](O)[C@H](O)[C@H]1[C@]32C` (relative stereo), for which the IC50 (in assay [1]; with A549; in the assay on Bel-7402; with HCT-8; in the assay on A2780) was more than 10 µM in each case.

As to `COc1cccc2c1C(=O)c1c(O)c3c(c(O)c1C2=O)C[C@@](O)(C(=O)CO)C[C@@H]3O[C@H]1C[C@H](N)[C@H](O)[C@H](C)O1` [DOXORUBICIN], the IC50 in assay [1] was found to be 0.98 µM; with A549, 0.72 µM; in the assay on Bel-7402, 0.53 µM; in the assay with HCT-8 it was 0.42 µM; with A2780, 0.33 µM.

Turning to `CC1(C)c2[nH]c3ccccc3c2C(=O)[C@@H]1O[C@@H]1O[C@H](CO)[C@@H](O)[C@H](O)[C@H]1O` [BRUCEOLLINE K], the IC50 (in assay [1]; in the assay with A549; in the assay on Bel-7402; with HCT-8; in the assay with A2780) was more than 10 µM in each case.

Take `CC1(C)C(=O)C(=O)c2c1[nH]c1ccccc21` [BRUCEOLLINE E]: the IC50 (in assay [1]; in the assay with A549; in the assay with Bel-7402; in the assay on HCT-8; in the assay on A2780) was more than 10 µM each time.

Take `CC1=CC(=O)[C@@H](O)[C@@]2(C)[C@H]1[C@@H](O)[C@H]1OC(=O)[C@H](O)[C@]3(O)[C@]14CO[C@]3(CO)[C@@H](O)[C@H](O)[C@H]24` [YADANZIOLIDE B]: the IC50 in assay [1] was 4.85 µM; in the assay with A549, 3.8 µM; in the assay on Bel-7402, 4.24 µM; in the assay with HCT-8 it was 3.33 µM; in the assay on A2780, more than 10 µM.
